Assay results as given in paper PMC5021521, “Coordinated recruitment of Spir actin nucleators and myosin V motors to Rab11 vesicle membranes” (eLife, 2016).
Entries after “also recorded” stand apart in the source; their conditions may differ. Ends that are not written are not given here.

Key:
GST-Rab11a-Q70L = test: GST-pulldown from HEK293 lysates; assay type: binding; settings: N = 2
Experimental: HEK293 cells were co-transfected with expression vectors encoding Myc-Spir-2-FL, mStrawberry-FMN2-FH2-FSI, eGFP-MyoVa-D-FL and eGFP-MyoVa-D-Q1753R, respectively. 24 hr post transfection, cells were lysed in lysis buffer (25 mM Tris-HCl pH 7.4, 150 mM NaCl, 5 mM MgCl2, 10% (v/v) glycerol, 0.1% (v/v) Nonidet P-40, 1 mM PMSF, protease inhibitor cocktail) and centrifuged at 20,000 x g, 4°C, 20 min to remove insoluble debris. For GST-pulldown assays 65 µg GST-Rab11a-Q70L protein (25 µg GST control) was coupled to GSH-Sepharose 4B beads (1:1 suspension) for 1 hr, 4°C on a rotating wheel. Beads were washed twice with pulldown buffer (25 mM Tris-HCl pH 7.4, 150 mM NaCl, 5 mM MgCl2, 10% (v/v) glycerol, 0.1% (v/v) Nonidet P-40) and subsequently incubated with the cell lysates for 2 hr at 4°C on a rotating wheel. Beads were washed four times with pulldown buffer and bound proteins were eluted with 1x Laemmli buffer and denatured at 95°C for 10 min, then were analyzed by immunoblotting.

GFP-MyoVb-GTD = test: Co-immunoprecipitation from HEK293 cells; assay type: binding, Homo sapiens; settings: anti-Myc co-IP, HEK293, immunoblot
Experimental: (§1) HEK293 cells were transfected with expression vectors encoding Myc-tagged Spir proteins and GFP-tagged myosin Va and myosin Vb fragments. 48 hr post transfection, cells were lysed in lysis buffer (25 mM Tris-HCl pH 7.4, 150 mM NaCl, 5 mM MgCl2, 10% (v/v) glycerol, 0.1% (v/v) Nonidet P-40, 1 mM Phenylmethylsulfonylfluorid (PMSF; Sigma-Aldrich), protease inhibitor cocktail (complete mini, EDTA-free; Roche, Penzberg, Germany)) and centrifuged at 20,000 x g, 4°C, 20 min to remove insoluble debris. The clarified supernatant was incubated with 4 µg anti-c-Myc antibody (9E10, mouse monoclonal; Santa Cruz Biotechnology; RRID: AB_627268) for 1 hr on ice. Subsequently, 40 µl Protein G-Agarose beads (1:1 suspension; Roche) were added and incubated for 2 hr at 4°C on a rotating wheel. Beads were washed with pulldown buffer (25 mM Tris-HCl pH 7.4, 150 mM NaCl, 5 mM MgCl2, 10% (v/v) glycerol, 0.1% (v/v) Nonidet P-40). Bound proteins were eluted with 1x Laemmli buffer and denatured for 10 min at 95°C, then analyzed by immunoblotting.

GFP-MyoVa-GTD = test: Co-immunoprecipitation from HEK293 cells; assay type: binding, Mus musculus; settings: anti-Myc co-IP, HEK293, immunoblot, N = 2
Experimental: as §1

Spir-1 = test: GST-pulldown from mouse brain lysates; assay type: binding; settings: 50 µg GST-fusion protein; immunoblot anti-Spir-1; N = 3
Experimental: Wild-type C57BL/6 (Jackson Laboratory, Bar Harbor, ME, USA) mice were killed by cervical dislocation. The brain was isolated immediately, washed in cold PBS and lysed in lysis buffer (25 mM Tris-HCl pH 7.4, 150 mM NaCl, 5 mM MgCl2, 10% (v/v) glycerol, 0.1% (v/v) Nonidet P-40, 0.1 M NaF, 1 mM Na3VO4, 1 mM PMSF, protease inhibitor cocktail) using a TissueRuptor (Qiagen). Following incubation on ice for 45 min, the lysate was centrifuged at 20,000 x g, 4°C until the supernatant was clear. Brain lysates were incubated with GSH-Sepharose 4B beads, loaded with 50 µg GST-fusion proteins as indicated, for 2.5 hr at 4°C on a rotating wheel. Beads were washed five times with pulldown buffer and bound proteins were eluted by 1x Laemmli buffer and denatured at 95°C for 10 min. Pulled proteins were analyzed by immunoblotting.

Rab11a-Q70L = test: GST-pulldown with purified proteins, tripartite complex; assay type: binding, Homo sapiens; settings: N = 3
Experimental: For GST-pulldown assays, 50 µg of GST-fusion protein was coupled to GSH-Sepharose 4B beads (1:1 suspension) for 1 hr at 4°C on a rotating wheel. Beads were washed twice with pulldown buffer and subsequently incubated with 20 µg His6-mCherry-fusion peptides for 2 hr, 4°C on a rotating wheel. In order to identify the tripartite Spir-2:MyoVa:Rab11a complex, 65 µg GST-Spir-2-GTBM-SB-FYVE was coupled to beads. Subsequently, beads were incubated with 40 µg MyoVa-GTD and 35 µg Rab11a-Q70L simultaneously for 2 hr. Beads were washed four times with pulldown buffer and bound proteins were eluted by 1x Laemmli buffer and denatured at 95°C for 10 min. Pulled proteins were analyzed by immunoblotting.

Spir-2: Myc-hs-Spir2 aa 2 - 714, full-length (QRPRPRVLLKAPTLAEMEEMNTSEEEE)
pulldown by GST-Rab11a-Q70L in words (GST-Rab11a-Q70L; HEK293 lysates over-expressing Myc-Spir-2, Straw-FMN2-FH2-FSI and GFP-MyoVa-FL): able to pull down Myc-Spir-2
pulldown by GST-Rab11a-Q70L in words, with Q1753R mutant MyoVa (GST-Rab11a-Q70L; HEK293 lysates with GFP-MyoVa-Q1753R in place of GFP-MyoVa-FL): Only faint
co-precipitation / interaction with MyoVb-GTD in words (GFP-MyoVb-GTD): did interact with the GFP-MyoVb-GTD
co-precipitation / interaction with MyoVb-GTD in words (GFP-MyoVb-GTD; listed as Myc-Spir-2): co-precipitation
co-precipitation / interaction with MyoVa-GTD in words (GFP-MyoVa-GTD): interacts
co-precipitation / interaction with MyoVa-GTD in words (GFP-MyoVa-GTD; listed as Myc-Spir-2): co-precipitation

GST-FMN2-eFSI: GST-mm-FMN2-eFSI aa 1523 - 1578, positive control ({GST}-EFSSDFKDAWKKENKLILQERVKEAEEVCRQKKGKSLYKVKPRHDSGIKAKISMKT) [reference compound]
pulldown of endogenous Spir-1 in words (Spir-1): able to pull endogenous Spir-1 from mouse brain lysates

B1: GST-Spir-2-GTBM-SB-FYVE: GST-hs-Spir2-GTBM-SB-FYVE aa 361 - 714 (protein)
chain: GEGWAARGFGSLPCILNACSGDAKSTSCINLSVTDAGGSAQRPRPRVLLKAPTLAEMEEMNTSEEEESPCGEVTLKRDRSFSEHDLAQLRSEVASGLQSATHPPGGTEPPRPRAGSAHVWRPGSRDQGTCPASVSDPSHPLLSNRGSSGDRPEASMTPDAKHLWLEFSHPVESLALTVEEVMDVRRVLVKAEMEKFLQNKELFSSLKKGKICCCCRAKFPLFSWPPSCLFCKRAVCTSCSIKMKMPSKKFGHIPVYTLGFESPQRVSAAKTAPIQRRDIFQSLQGPQWQSVEEAFPHIYSHGCVLKDVCSECTSFVADVVRSSRKSVDVLNTTPRRSRQTQSLYIPNTRTLDFK
modifications: left off: GST, end not stated, kept
pulldown of Rab11a-Q70L in words (Rab11a-Q70L; in the presence of MyoVa-GTD): allows GST-Spir-2-GTBM-SB-FYVE to pull Rab11a-Q70L
pulldown of Rab11a-Q70L in words (Rab11a-Q70L; without MyoVa-GTD): does not interact with Rab11a-Q70L; also recorded: does not pull down Rab11a-Q70L
